Test results taken from patent US20250340593A1, “METHOD AND COMPOSITION FOR TREATING NEURODEGENERATIVE DISORDER” (priority 2022, published 2025).
Residues, ends and D or L forms follow the SMILES beside them.

What was measured:
[1] = test system: hippocampal slices from 8-month-old WT and APP/PS1 mice; experiment: LTP field potential recordings in acute hippocampal slices; parameters: species or system mouse; details: for LTP amplitude computed as fEPSP slope 50 to 60 min after TBS / effect on LTP responses in WT slices: peptide 500 nM for 40 min before TBS
Description: Animals specimens Embryonic day 17-18 (E17-18) C57BI/6JRj wild-type male and female mice were used for primary hippocampal cell cultures. Electrophysiological field potential recording experiments were performed on 8-month-old wild type and transgenic heterozygous male APP/PS1-21 mice generated on a C57Bl/6 background and expressing a transgene combining human APP with the Swedish mutation (APPKM670/671NL) and mutated L166P human presenilin 1 (PS1) under the Thyl promoter (Radde et al, 2006). Wild type and APP/PSI mice were generated as described previously (Radde et al, 2006) and genotyping was carried out to reveal the presence or absence of APP and PSI transgenes. The study was conducted in accordance with the European Community Council directive 2010/63/EU on the protection of animals used for experimental and scientific purposes. Animal care and treatment procedures were realized according to the guidelines approved by the French Ethical Committee of the Lyon 1 University (DR2013-47).
Local field potential recordings (LFP) were performed on acute coronal hippocampal slices from 8-month-old wild type and transgenic heterozygous male APP/PS1-21 mice to measure baseline synaptic response and long-term potentiation (LTP) of Schaffer collaterals to CAI pyramidal cell synapses. Hippocampal slices (400 μm thick) were cut using a vibratome (Leica VT1200S) and incubated at room temperature in artificial cerebrospinal fluid (ACSF) containing (in mM): 124 NaCl, 10 glucose, 1.25 NaH2PO4, 2.5 KCl, 26 NaHCO3, 1.3 MgCl2, and 2.5 CaCl2, bubbled with 95% 02 and 5% CO2, pH 7.4) for 1 h prior to recording. Field excitatory postsynaptic potentials (fEPSPs) were recorded extracellularly in stratum radiatum of CAI region of the dorsal hippocampus in presence of gammaaminobutyric acid (GABA)-A receptor antagonist picrotoxin (100 μM). Electrical stimulation was realized with a bipolar tungsten electrode placed in CAI stratum radiatum and fEPSPs were measured using borosilicate glass microelectrodes (˜1-3 M (2) filled with ACSF. The tip of the recording electrode was located close to the slice surface. LFP were amplified and low-pass filtered at 3 kHz using a differential amplifier (X1000, WPI) and data acquisition and analyses were carried out using a National Instrument interface coupled with Elphy software (G. Sadoc, CNRS, France). LFP were sampled at 10 kHz and fEPSPs initial slope was computed to quantify synaptic responses. After baseline recordings of synaptic activity evoked at 0.2 Hz for at least 10 minutes, slices were incubated in ACSF or treated with the CP or BP at 500 nM for 40 min before inducing LTP with the theta burst stimulation (TBS). The effects of the peptides on synaptic responses were tested in a series of pilot experiments on mice of both genotypes. […] TBS consisted of 10 trains separated by 30 s, each train composed of 6 bursts at 5 Hz and each burst providing 4 pulses at 100 Hz. Before LTP induction, precautions were taken to ensure that approximately the same amplitude of fEPSPs was obtained in baseline for the different experiments to achieve the same level of cooperativity in each group. After LTP induction, fEPSPs were recorded for at least 60 min.

Aβ preparation (30 μM) = biological target: T1, Aβ preparation (30 μM) (Homo sapiens, UniProt P05067); experiment: Transmission electron microscopy of Aβ aggregates; details: for morphology of Aβ aggregates by TEM: Aβ 30 μM with equimolar peptide, 24 h
T1 construct: purchased Bachem; host or cells: chemical synthesis
T1 sequence (P05067 672-713 limits assumed): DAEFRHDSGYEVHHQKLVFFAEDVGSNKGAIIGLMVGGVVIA
Description: Prior to imaging, 10 μL of an Aβ preparation (30 μM) aggregated for 24 h at 37° C. in the presence or absence of equimolar concentration of the CP or BP were deposited onto Formvar-C coated mesh nickel grids. After a 10 min incubation step at RT, grids were rinsed with sterile dH20. Samples were subsequently stained using 5% uranyl acetate for 1 minute in the dark to increase contrast and were allowed to air dry for 2 minutes. Finally, they were visualized with a JEM 1400 Transmission Electron Microscope (Jcol Tokyo, Japan), operating at 120 kV, initially imaged at low magnification (20,000X), and thereafter at 120,000X using a Gatan Orius 1000 digital micrograph software.

[2] = biological target: T2, biotinylated Aβ42 oligomers (Aβo (42)) (Homo sapiens, UniProt P05067); experiment: Peptide array probed with biotinylated Aβ42 oligomers; assay type: binding; details: biotinylated Aβo 0.1 to 10 μg.mL-1, BP result at the lowest concentration (0.1 μg/ml-1)
T2 construct: purchased Bachem; host or cells: chemical synthesis
T2 sequence (P05067 672-713 limits assumed): as above
Description: In the context of the invention, cellulose-bound peptide arrays encompassing the heparin binding domain and the C-terminal human VEGF sequence (UniProtKB #P15692) were synthesized by Proteomic Solutions. Overlapping 15-mer peptides were shifted by 3 aa and two copies of the same array were spotted on the slide for quality control and reproducibility. Arrays were blocked for 2 h in Tris buffered saline, 1% Tween 20, 5% BSA to prevent unspecific binding, and were subsequently probed for 15 h at 4° C. with biotinylated AB42 oligomers (Aβo (42)) using concentrations varying from 0.1 to 10 μg.mL-1 or vehicle used as a control. After washing in TBS 1% Tween 20, peptide arrays were incubated with HRP-conjugated Streptavidin for 2 h at RT. Aβo interaction was detected using SuperSignal West Pico PLUS chemiluminescent substrate and non-specific Aβ binding was determined using the control peptide (CP) spotted on the peptide array. […]
Cellulose-bound peptide arrays encompassing the heparin binding domain and the C-terminal human VEGF sequence (UniProtKB #P15692) were synthesized by Proteomic Solutions. […] Aβo interaction was detected using SuperSignal West Pico PLUS chemiluminescent substrate and non-specific Aβ binding was determined using the control peptide (CP) spotted on the peptide array. […]

CC(C)[C@H](NC(=O)[C@H](Cc1ccc(O)cc1)NC(=O)[C@@H](NC(=O)[C@H](CO)NC(=O)[C@H](Cc1c[nH]c2ccccc12)NC(=O)[C@H](CO)NC(=O)[C@H](CCCCN)NC(=O)[C@H](Cc1ccc(O)cc1)NC(=O)[C@H](CCCNC(=N)N)NC(=O)[C@H](CO)NC(=O)[C@H](CCCCN)NC(=O)[C@H](CCCCN)NC(=O)[C@H](CCCNC(=N)N)NC(=O)[C@@H](N)CCCCN)C(C)C)C(=O)NCC(=O)O [BP, KRKKSRYKSWSVYVG] (H-KRKKSRYKSWSVYVG-OH; N-terminus and C-terminus assumed)
change in baseline synaptic responses before LTP induction ([1]; 500 nM, during the 40 min prior to LTP induction, mice of both genotypes): did not induce a change
LTP amplitude computed as fEPSP slope 50 to 60 min after TBS ([1]; APP/PS1 slices): 226.7±40.5%
effect on LTP responses in WT slices ([1]; WT slices): does not alter LTP responses
morphology of Aβ aggregates by TEM (Aβ preparation (30 μM)): mainly non-fibrillar and amorphous in shape
self-assembly structures of peptide alone by TEM (Aβ preparation (30 μM)): does not induce any 3-dimensional self-assembly structures
labeling of peptide spot by biotinylated Aβo [2]: clear staining

NDYKDDDDKGAAA [CP, reference compound]
LTP amplitude computed as fEPSP slope 50 to 60 min after TBS ([1]; APP/PS1 slices): 119.8±9.1%
LTP amplitude computed as fEPSP slope 50 to 60 min after TBS ([1]; WT slices): 191.4±18.3%
effect on LTP responses in WT slices ([1]; WT slices): does not alter LTP responses
morphology of Aβ aggregates by TEM (Aβ preparation (30 μM)): characteristic twisted morphology
self-assembly structures of peptide alone by TEM (Aβ preparation (30 μM)): does not induce any 3-dimensional self-assembly structures
labeling of peptide spot by biotinylated Aβo [2]: no labelling
